In patent US5229116A, “Administration of pharmaceutical agents” (priority 1989, dated 1993) one finds Cmax, Tmax and AUC(0-inf) data, which are given here for two compounds.

This series is described as follows: In vivo pharmacokinetic studies of dihydropyridines given orally with water, grapefruit juice or orange juice (plasma concentration, GC analysis). Further details: species or system human (healthy subjects, hypertensive patients). The note with it: human, po, mean; for AUC(0-inf): zero to infinity. The procedure:
Hypertensive patients and healthy volunteers were given commercially available formulations of dihydropyridines in the morning after an overnight fast. The tablets were taken either with water, orange juice, or, as a source of flavonoids, 200 ml grapefruit juice. This contains about 150 mg of flavonoids, either as aglycones or glycosides.
The protocols for the five studies are shown on Table 2.
Blood samples for the analysis of the dihydropyridine and the first metabolite were drawn before and at frequent intervals after dose via an indwelling antecubital cannula. Samples were centrifuged and the plasma frozen (-20° C.) until analysis.
The maximum plasma concentration, Cmax, and the corresponding time to reach peak concentration, tmax, were recorded from the individual plasma concentration time curves of the dihydropyridine and its first metabolite. The area from zero to infinity was calculated adding the residual area to the area from zero to last determinable plasma concentration value by using the slope of the log plasma concentration time curve in the 3 to 8 hour interval after dose.

The mark [1] stands for this setting: plasma, felodipine ER tablets, healthy subjects, n = 9, grapefruit juice.
[2] abbreviates: plasma, felodipine ER tablets, healthy subjects, n = 9, water.
[3] abbreviates: plasma, felodipine plain tablets, healthy subjects, n = 9, grapefruit juice.
The mark [4] stands for this setting: plasma, felodipine plain tablets, healthy subjects, n = 9, water.
Setting [5] is: plasma, felodipine plain tablets, patients, n = 6, grapefruit juice.
Where [6] appears, read: plasma, felodipine plain tablets, patients, n = 6, orange juice.
[7] abbreviates: plasma, felodipine plain tablets, patients, n = 6, water.
[8] abbreviates: plasma, 10 mg, nitrendipine 10 mg tablets, healthy subjects, n = 3, grapefruit juice.
The mark [9] stands for this setting: plasma, 10 mg, nitrendipine 10 mg tablets, healthy subjects, n = 3, water.

By Cmax is commonly meant the peak of the concentration-time curve. Usually Tmax stands for the time at which the peak concentration occurs. The term AUC(0-inf) denotes total exposure, with the tail of the curve extrapolated. High values mean more exposure, low ones less exposure. As to `CCOC(=O)C1=C(C)NC(C)=C(C(=O)OC)C1c1cccc(Cl)c1Cl` (stereo not drawn) [Felodipine], the concentration under setting [1] peaked (Cmax) at 8.9 ± 3.3 nM; the Cmax under setting [2] is 3.4 ± 1.6 nM; the Cmax under setting [3] came out at 16.3 ± 7.1 nM; the highest concentration (Cmax) under setting [4] came to 6.6 ± 3.6 nM; the highest level under setting [5] (Cmax) was 28.7 ± 7.6 nM; the Cmax under setting [6] was 16.4 ± 7.8 nM. Moreover, the peak level under setting [7] (Cmax) was 13.2 ± 5 nM. Also, the Tmax reads like this: under setting [1], 3.2 ± 0.8 h; under setting [2], 3.4 ± 0.9 h; under setting [3], 2.1 ± 0.9 h; under setting [4], 1.3 ± 0.6 h; under setting [5], 2.1 ± 0.5 h; under setting [6], 1.9 ± 0.1 h. Also, the Tmax under setting [7] was found to be 1.1 ± 0.5 h. For the same compound, the AUC(0-inf) by setting is: under setting [1], 0.0478 ± 0.0157 µM·h; under setting [2], 0.0274 ± 0.0123 µM·h; under setting [3], 0.065 ± 0.0263 µM·h; under setting [4], 0.0228 ± 0.0106 µM·h; under setting [5], 0.121 ± 0.045 µM·h; under setting [6], 0.0514 ± 0.0222 µM·h. For the same compound, the AUC(0-inf) under setting [7] came out at 0.0484 ± 0.0237 µM·h.
Turning to `CCOC(=O)C1=C(C)NC(C)=C(C(=O)OC)C1c1cccc([N+](=O)[O-])c1` (stereo not drawn) [Nitrendipine], the Tmax runs as follows: (in vivo, 10 mg, nitrendipine 10 mg tablets, healthy subjects, n = 3, grapefruit juice) 1.3 ± 0.5 h; (in vivo, 10 mg, nitrendipine 10 mg tablets, healthy subjects, n = 3, water) 1.5 h. Moreover, the Cmax was found to be 8.9 ± 4.8 nM under setting [8] and 3.7 ± 1.8 nM under setting [9]. In addition, the AUC(0-inf) is, setting by setting: under setting [8], 0.035 ± 0.0195 µM·h; under setting [9], 0.0151 ± 0.0058 µM·h.
